Data: ChEMBL document CHEMBL5131477, “Design, synthesis and biological evaluation of 1,3,4-triazole-3-acetamide derivatives as potent neuraminidase inhibitors” (Bioorg Med Chem Lett, 2022)

experiment: Inhibition of Influenza A virus H5N1 Neuraminidase

SMILES	IC50
CCc1ccc(NC(=O)CSc2nnc(-c3ccco3)[nH]2)cc1	0.11 µM
COc1cc(F)ccc1NC(=O)CSc1nnc(-c2ccco2)[nH]1	1.8 µM
COc1ccc(C)cc1NC(=O)CSc1nnc(-c2ccco2)[nH]1	28.5 µM
COc1ccc(OC)c(NC(=O)CSc2nnc(-c3ccco3)[nH]2)c1	55.3 µM
O=C(CSc1nnc(-c2ccco2)[nH]1)NCCc1ccc2c(c1)OCO2	1.67 µM
COc1cccc(CCNC(=O)CSc2nnc(-c3ccco3)[nH]2)c1	9.04 µM
CCC(CC)O[C@@H]1C=C(C(=O)O)C[C@H](N)[C@H]1NC(C)=O [OSELTAMIVIR CARBOXYLATE]	0.1 µM
O=C(CSc1nnc(-c2ccco2)[nH]1)NCCc1cccc(F)c1	8.06 µM
COc1cccc(NC(=O)CSc2nnc(-c3ccco3)[nH]2)c1	0.24 µM
COc1ccc(C(=O)NNC(=O)CSc2nnc(-c3ccco3)[nH]2)cc1	12.2 µM
O=C(CSc1nnc(-c2ccco2)[nH]1)Nc1cccc(Cl)c1	4.33 µM
COc1ccc(NC(=O)CSc2nnc(-c3ccco3)[nH]2)cc1OC	1.43 µM
